According to PubChem BioAssay (NCI):
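Grown in 96-well plates, cells were treated for 48 hours with each compound at five concentrations. Insufficient inhibition: endpoint recorded as highest concentration tested. At the GI50, growth is halved. At the TGI there is no net growth.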

Key:
Assay in all cases: NCI anticancer screen, dose series, 48 h
HT29 colon = test system: HT29 colon
SNB-75 CNS = test system: SNB-75 CNS
OVCAR-5 ovarian = test system: OVCAR-5 ovarian
HCT-15 colon = test system: HCT-15 colon
KM12 colon = test system: KM12 colon
HS 578T breast = test system: HS 578T breast
SK-OV-3 ovarian = test system: SK-OV-3 ovarian
HCC-2998 colon = test system: HCC-2998 colon
NCI-H226 lung = test system: NCI-H226 lung
IGROV1 ovarian = test system: IGROV1 ovarian
SNB-19 CNS = test system: SNB-19 CNS
MCF7 breast = test system: MCF7 breast
NCI-H460 lung = test system: NCI-H460 lung
UACC-62 melanoma = test system: UACC-62 melanoma
SK-MEL-2 melanoma = test system: SK-MEL-2 melanoma
UO-31 renal = test system: UO-31 renal
NCI/ADR-RES ovarian = test system: NCI/ADR-RES ovarian
DU-145 prostate = test system: DU-145 prostate
HCT-116 colon = test system: HCT-116 colon
PC-3 prostate = test system: PC-3 prostate
SR leukemia = test system: SR leukemia
COLO 205 colon = test system: COLO 205 colon
SF-268 CNS = test system: SF-268 CNS
BT-549 breast = test system: BT-549 breast
U251 CNS = test system: U251 CNS
T-47D breast = test system: T-47D breast
OVCAR-8 ovarian = test system: OVCAR-8 ovarian
ACHN renal = test system: ACHN renal
CAKI-1 renal = test system: CAKI-1 renal
786-0 renal = test system: 786-0 renal
RXF 393 renal = test system: RXF 393 renal
SN12C renal = test system: SN12C renal
NCI-H23 lung = test system: NCI-H23 lung
LOX IMVI melanoma = test system: LOX IMVI melanoma
MDA-MB-231 breast = test system: MDA-MB-231 breast
SF-539 CNS = test system: SF-539 CNS
EKVX NSCLC = test system: EKVX NSCLC
HOP-62 NSCLC = test system: HOP-62 NSCLC
SK-MEL-28 melanoma = test system: SK-MEL-28 melanoma
OVCAR-3 ovarian = test system: OVCAR-3 ovarian
SW-620 colon = test system: SW-620 colon
SF-295 CNS = test system: SF-295 CNS
HOP-92 NSCLC = test system: HOP-92 NSCLC
A498 renal = test system: A498 renal
A549 NSCLC = test system: A549 NSCLC
OVCAR-4 ovarian = test system: OVCAR-4 ovarian
M14 melanoma = test system: M14 melanoma
NCI-H522 lung = test system: NCI-H522 lung

Question: `COc1cc(C2CC(c3ccccc3)=NN2C=O)ccc1Oc1ccnc2cc(Cl)ccc12` (stereo unspecified) was tested. Which GI50 (HT29 colon) did it give?
Answer: > 100 µM

Question: And the TGI (HT29 colon)?
Answer: > 100 µM

Question: And the GI50 (SNB-75 CNS)?
Answer: 3.31 µM

Question: What about the TGI (SNB-75 CNS) of the same molecule?
Answer: 21 µM

Question: What about the GI50 (OVCAR-5 ovarian) of the same molecule?
Answer: > 100 µM

Question: And the TGI (OVCAR-5 ovarian)?
Answer: > 100 µM

Question: What about the GI50 (HCT-15 colon) of the same molecule?
Answer: > 100 µM

Question: What about the TGI (HCT-15 colon) of the same molecule?
Answer: > 100 µM

Question: And the GI50 (KM12 colon)?
Answer: > 100 µM

Question: What about the TGI (KM12 colon) of the same molecule?
Answer: > 100 µM

Question: And the GI50 (HS 578T breast)?
Answer: 5.6 µM

Question: What about the TGI (HS 578T breast) of the same molecule?
Answer: > 100 µM

Question: What about the GI50 (SK-OV-3 ovarian) of the same molecule?
Answer: 4.56 µM

Question: What about the TGI (SK-OV-3 ovarian) of the same molecule?
Answer: > 100 µM

Question: And the GI50 (HCC-2998 colon)?
Answer: > 100 µM

Question: And the TGI (HCC-2998 colon)?
Answer: > 100 µM

Question: And the GI50 (NCI-H226 lung)?
Answer: 5.24 µM

Question: What about the TGI (NCI-H226 lung) of the same molecule?
Answer: > 100 µM

Question: What about the GI50 (IGROV1 ovarian) of the same molecule?
Answer: 35 µM

Question: And the TGI (IGROV1 ovarian)?
Answer: > 100 µM

Question: What about the GI50 (SNB-19 CNS) of the same molecule?
Answer: 26.6 µM

Question: And the TGI (SNB-19 CNS)?
Answer: > 100 µM

Question: And the GI50 (MCF7 breast)?
Answer: 5.7 µM

Question: What about the TGI (MCF7 breast) of the same molecule?
Answer: > 100 µM

Question: And the GI50 (NCI-H460 lung)?
Answer: 18.5 µM

Question: What about the TGI (NCI-H460 lung) of the same molecule?
Answer: > 100 µM

Question: What about the GI50 (UACC-62 melanoma) of the same molecule?
Answer: 6.76 µM

Question: What about the TGI (UACC-62 melanoma) of the same molecule?
Answer: > 100 µM

Question: And the GI50 (SK-MEL-2 melanoma)?
Answer: 8.68 µM

Question: And the TGI (SK-MEL-2 melanoma)?
Answer: 38.6 µM

Question: And the GI50 (UO-31 renal)?
Answer: 13.5 µM

Question: And the TGI (UO-31 renal)?
Answer: > 100 µM

Question: What about the GI50 (NCI/ADR-RES ovarian) of the same molecule?
Answer: 3.23 µM

Question: And the TGI (NCI/ADR-RES ovarian)?
Answer: > 100 µM

Question: What about the GI50 (DU-145 prostate) of the same molecule?
Answer: > 100 µM

Question: And the TGI (DU-145 prostate)?
Answer: > 100 µM

Question: What about the GI50 (HCT-116 colon) of the same molecule?
Answer: 6.07 µM

Question: What about the TGI (HCT-116 colon) of the same molecule?
Answer: > 100 µM

Question: And the GI50 (PC-3 prostate)?
Answer: 2.8 µM

Question: And the TGI (PC-3 prostate)?
Answer: > 100 µM

Question: What about the GI50 (SR leukemia) of the same molecule?
Answer: > 100 µM

Question: What about the TGI (SR leukemia) of the same molecule?
Answer: > 100 µM

Question: What about the GI50 (COLO 205 colon) of the same molecule?
Answer: > 100 µM

Question: What about the TGI (COLO 205 colon) of the same molecule?
Answer: > 100 µM

Question: And the GI50 (SF-268 CNS)?
Answer: 23.2 µM

Question: What about the TGI (SF-268 CNS) of the same molecule?
Answer: > 100 µM

Question: What about the GI50 (BT-549 breast) of the same molecule?
Answer: 2.24 µM

Question: What about the TGI (BT-549 breast) of the same molecule?
Answer: 14.1 µM

Question: And the GI50 (U251 CNS)?
Answer: 19.8 µM

Question: And the TGI (U251 CNS)?
Answer: > 100 µM

Question: And the GI50 (T-47D breast)?
Answer: 10.3 µM

Question: And the TGI (T-47D breast)?
Answer: 39.7 µM

Question: And the GI50 (OVCAR-8 ovarian)?
Answer: 4.91 µM

Question: And the TGI (OVCAR-8 ovarian)?
Answer: > 100 µM

Question: What about the GI50 (ACHN renal) of the same molecule?
Answer: 17.4 µM

Question: What about the TGI (ACHN renal) of the same molecule?
Answer: > 100 µM

Question: What about the GI50 (CAKI-1 renal) of the same molecule?
Answer: 5.2 µM

Question: And the TGI (CAKI-1 renal)?
Answer: > 100 µM

Question: What about the GI50 (786-0 renal) of the same molecule?
Answer: 11.5 µM

Question: And the TGI (786-0 renal)?
Answer: 73.7 µM

Question: And the GI50 (RXF 393 renal)?
Answer: 15.4 µM

Question: What about the TGI (RXF 393 renal) of the same molecule?
Answer: 47.6 µM

Question: And the GI50 (SN12C renal)?
Answer: > 100 µM

Question: And the TGI (SN12C renal)?
Answer: > 100 µM

Question: And the GI50 (NCI-H23 lung)?
Answer: 4.82 µM

Question: And the TGI (NCI-H23 lung)?
Answer: > 100 µM

Question: What about the GI50 (LOX IMVI melanoma) of the same molecule?
Answer: > 100 µM

Question: What about the TGI (LOX IMVI melanoma) of the same molecule?
Answer: > 100 µM

Question: And the GI50 (MDA-MB-231 breast)?
Answer: 28.5 µM

Question: What about the TGI (MDA-MB-231 breast) of the same molecule?
Answer: > 100 µM

Question: And the GI50 (SF-539 CNS)?
Answer: 10.3 µM

Question: And the TGI (SF-539 CNS)?
Answer: 77.9 µM

Question: What about the GI50 (EKVX NSCLC) of the same molecule?
Answer: 3.67 µM

Question: What about the TGI (EKVX NSCLC) of the same molecule?
Answer: > 100 µM

Question: What about the GI50 (HOP-62 NSCLC) of the same molecule?
Answer: 12.4 µM

Question: And the TGI (HOP-62 NSCLC)?
Answer: 36.3 µM

Question: And the GI50 (SK-MEL-28 melanoma)?
Answer: > 100 µM

Question: And the TGI (SK-MEL-28 melanoma)?
Answer: > 100 µM

Question: What about the GI50 (OVCAR-3 ovarian) of the same molecule?
Answer: 18.6 µM

Question: And the TGI (OVCAR-3 ovarian)?
Answer: > 100 µM

Question: What about the GI50 (SW-620 colon) of the same molecule?
Answer: > 100 µM

Question: What about the TGI (SW-620 colon) of the same molecule?
Answer: > 100 µM

Question: And the GI50 (SF-295 CNS)?
Answer: 5.58 µM

Question: What about the TGI (SF-295 CNS) of the same molecule?
Answer: 86.2 µM

Question: What about the GI50 (HOP-92 NSCLC) of the same molecule?
Answer: 1.5 µM

Question: What about the TGI (HOP-92 NSCLC) of the same molecule?
Answer: 13.6 µM

Question: And the GI50 (A498 renal)?
Answer: 6.9 µM

Question: And the TGI (A498 renal)?
Answer: > 100 µM

Question: And the GI50 (A549 NSCLC)?
Answer: 8.87 µM

Question: And the TGI (A549 NSCLC)?
Answer: > 100 µM

Question: And the GI50 (OVCAR-4 ovarian)?
Answer: 4.17 µM

Question: And the TGI (OVCAR-4 ovarian)?
Answer: 34 µM

Question: What about the GI50 (M14 melanoma) of the same molecule?
Answer: 5.83 µM

Question: And the TGI (M14 melanoma)?
Answer: > 100 µM

Question: And the GI50 (NCI-H522 lung)?
Answer: 5.28 µM

Question: What about the TGI (NCI-H522 lung) of the same molecule?
Answer: > 100 µM
